Measured values published in patent publication US9138434B2, “Octahydrothienoquinoline derivative, pharmaceutical composition comprising derivative, and use of these” (KISSEI PHARMACEUTICAL CO., LTD., priority 2011, dated 2015).
Like-named read-outs stand apart in the source and are kept apart here.

Tests used:
[1] = molecular target: T1, human serotonin 5-HT2B receptor (Homo sapiens, UniProt P41595); experiment: Stimulating activities on human serotonin 5-HT2B receptor, intracellular calcium in forced expression HEK293 cells; assay type: cell-based
T1 construct: expressed in transfected cells; host or cells: HEK293, transient transfection (Lipofectamine 2000)
T1 sequence (P41595 whole entry): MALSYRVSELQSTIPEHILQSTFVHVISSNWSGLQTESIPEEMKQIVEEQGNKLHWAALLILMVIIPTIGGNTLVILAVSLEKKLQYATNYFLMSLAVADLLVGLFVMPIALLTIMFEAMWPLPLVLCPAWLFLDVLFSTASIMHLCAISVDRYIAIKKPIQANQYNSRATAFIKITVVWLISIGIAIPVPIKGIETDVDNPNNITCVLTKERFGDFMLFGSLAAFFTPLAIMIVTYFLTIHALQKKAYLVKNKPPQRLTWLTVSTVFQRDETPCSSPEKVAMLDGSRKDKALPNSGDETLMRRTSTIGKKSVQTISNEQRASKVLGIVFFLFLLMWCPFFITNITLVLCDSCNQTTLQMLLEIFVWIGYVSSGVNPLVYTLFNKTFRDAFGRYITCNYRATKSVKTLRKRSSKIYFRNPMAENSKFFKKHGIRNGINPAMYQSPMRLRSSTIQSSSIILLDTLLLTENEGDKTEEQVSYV
Protocol: Identification Test of Stimulating Activities on Human Serotonin 5-HT2B Receptor
The PCR was performed using forward primer depicted as sequence ID No. 4, reverse primer depicted as sequence ID No. 5 and KOD-Plus-Ver.2 (TOYOBO) as template of human brain hippocampus cDNA (Clontech). The PCR product was inserted into a plasmid (pcDNA3.1/V5-His-Topo (registered mark)). The PCR product-inserted plasmid was transformed in E. coli (One Shot TOP10 Chemically Competent). That E. coli was incubated in LB agar medium contained 50 μg/mL ampicillin for a day. A selected colony was incubated in LB medium contained 50 μg/mL ampicillin and PCR product-inserted plasmid was purified with QIAprep Spin Miniprep Kit (QIAGEN).
Mostly confluent HEK293 cells were washed with PBS, followed by exfoliation with 0.05% trypsin-EDTA and the cells were suspended in D-MEM liquid medium (phenol red-free, low glucose, pyruvic acid were contained) containing fetal bovine serum (final concentration: 10%) and GlutaMax (registered mark)I (final concentration: 2 mM). The suspension was scattered at 5×10^4 cells/100 L/well on poly-D-lysine-coated 96-well microplate (BD BioCoat (registered mark)). The scattered cells were cultured in 5% CO2 incubator at 37° C. Human serotonin 5-HT2B receptor expression plasmid was transfected in that cells according to the procedure seeing below.
Human serotonin 5-HT2B receptor expression plasmid and Lipofectamine (registered mark) 2000 (Invitrogen) were diluted to 0.008 g/L and 0.016 g/L each other with OPTI-MEM (registered mark)I Reduced-Serum Medium and incubated at room temperature. After incubation, the human serotonin 5-HT2B receptor exoression plasmid-diluted liquid and Lipofectamine (registered mark) 2000-diluted liquid were mixed at an equal volume and incubated at room temperature to form a complex. The complex was dispensed at 50 μL/well on the cells prepared above. The cells were incubated in 5% CO2 incubator at 37° C. for 2 days. After incubation, the cells were used as human serotonin 5-HT2B receptor forced expression cells for measurement of intracellular calcium concentration.
3) Determination of Stimulating Activities of Human Serotonin 5-HT2B Receptor
The stimulating activities of human serotonin 5-HT2B receptor was determined by measuring of intracellular calcium concentration. The 30 mM dimethyl sulfoxide (DMSO) solution contained test compounds or serotonin hydrochloride (Sigma) as positive control, was diluted with assay buffer ((HBSS), 20 mM HEPES, 1.3 mM calcium chloride, 0.5 mM magnesium chloride and 0.4 mM magnesium sulfate were contained, pH7.4) to appropriate concentration.
The forced expression cells were washed with assay buffer, and 100 μL/well of fluorescent calcium indicator (Fluo-4 NW Calcium Assay Kit) was added and incubated in 5% CO2 incubator at 37° C. After incubation, 50 μL/well of each test compound was added, and the concentration of intracellular calcium was measured as fluorescent signal with FlexStation (registered mark) II (Molecular Devices). The data was analyzed by nonlinear regression and sigmoidal dose-response curve fitting using GraphPad PRISM 4.0, and values of EC50 (concentration of the compound producing half the maximal effect of the compound) were calculated. The data was presented as mean value (n=2).

[2] = test system: unilateral 6-OHDA-lesioned hemi-Parkinsonian rats; experiment: Contralateral rotational behavior in unilateral 6-hydroxydopamine-lesioned hemi-parkinsonian rats; assay type: in vivo, rat (male Sprague-Dawley); conditions: 10 mg/kg oral, fasted rats, observed up to 24 hours, mean; for Total number or rotations: contralateral rotations; for Duration: duration of contralateral rotation response
Protocol: 6-OHDA was dissolved at 2 mg/mL in a physiolosical saline solution containing 0.2% L-ascorbic acid. Desipramine was dissolved at 10 mg/mL in a physiolosical saline solution in a hot-water bath. Apomorphine was dissolved at 0.1 mg/mL in a physiolosical saline solution. […] Test compounds were dissolved in a solution containing 2% DMA, 100 or 200 mol % hydrochloric acid, and 98% of a 0.5% methyl cellulose solution. […] (Eur J Pharmacol, 2000, vol. 408, P. 249-255) with a minor modification. Male Sprague-Dawley rats (6-weeks-old, Charles River Laboratories Japan Inc.) were anaesthetized with intraperitoneal somnopentyl (45 mg/kg) injection and placed in a stereotaxic frame (Narishige). In order to prevent 6-OHDA-induced damage of noradrenergic neurons, desipramine (25 mg/kg) was intraperitoneally injected 30 minutes before the 6-OHDA injection. After the bregma identification via a middle calvarial incision, the skull was drilled using a dental drill at the site of 6-OHDA injection. The lesion was made by injecting 6-OHDA (8 μg in 4 μL at a speed of 1 μL/minute) unilaterally into the left medial forebrain bundle by using a injection cannula (30 gauge needle) connected to a microsyringe (Hamilton) (the lesion coordinates; A/P −2.5 mm, L/M −1.8 mm, and V/D −8.0 mm, from the bregma point and surface of the skull). The cannula was carefully removed from the animal after keeping placed on the lesion site for 5 minutes. The skull was filled its hole with dental cement, disinfected, and the scalp incision was surgically sutured. Animals recovered from anesthesia were housed as usual until the day of the experiment. 3) Determining of Contralateral Rotational Behavior Three weeks after the lesion, rats were tested on the basis of their contralateral rotational behavior (single rotation was defined as a 360° turn) in response to 0.1 mg/kg apomorphine given subcutaneously. For behavioral observation, rats were placed in plastic cylinders of a diameter of 30 cm, and its contralateral rotational behaviors were videotaped and quantified by rat-rotation auto counting system R-RACS (Kissei Wellcom). On the experimental day, animals were fasted overnight, and test compounds were orally administrated at doses of 10 mg/kg. […] Total number of rotations and the duration of the response in experimental period were presented as mean value.

[3] = intracellular calcium (Fluo-4), HEK293 cells transiently expressing human 5-HT2B receptor, mean, n=2, read-out: EC50

Structure (SMILES) | EC50 [1, 3] [µM] | Total number or rotations [2] | Duration [2] [min] | EC50 [1] [µM]
CCCCN(C(=O)NCCN(C)C)C(=O)[C@@H]1C[C@@H]2Cc3c(sc(N)c3C#N)C[C@H]2N(C)C1 (relative stereo) [1-24, 1-{[(4aR*,6R*,8aR*)-2-amino-3-cyano-8-methyl-4H,4aH,5H,6H,7H,8H,8aH,9H-thieno[3,2-g]quinolin-6-yl]carbonyl}-1-butyl-3-[2-(dimethylamino)ethyl]urea] | > 10 | 5230.0 | 766.3 | –
CC(C)CCN(C(=O)NCCN(C)C)C(=O)[C@@H]1C[C@@H]2Cc3c(sc(N)c3C#N)C[C@H]2N(C)C1 (relative stereo) [1-43, 1-{[(4aR*,6R*,8aR*)-2-amino-3-cyano-8-methyl-4H,4aH,5H,6H,7H,8H,8aH,9H-thieno[3,2-g]quinolin-6-yl]carbonyl}-3-[2-(dimethylamino)ethyl]-1-(3-methylbutyl)urea] | > 10 | 7557.5 | 843.8 | –
CCCCN(C(=O)NCCN1CCCCC1)C(=O)[C@@H]1C[C@@H]2Cc3c(sc(N)c3C#N)C[C@H]2N(C)C1 (relative stereo) [1-46, 1-{[(4aR*,6R*,8aR*)-2-amino-3-cyano-8-methyl-4H,4aH,5H,6H,7H,8H,8aH,9H-thieno[3,2-g]quinolin-6-yl]carbonyl}-1-butyl-3-[2-(piperidin-1-yl)ethyl]urea] | > 10 | 10329.8 | 1158.8 | –
CCCN(C(=O)NCCN(C)C)C(=O)[C@@H]1C[C@@H]2Cc3c(sc(N)c3C#N)C[C@H]2N(C)C1 [1-1, 1-{[(4aR,6R,8aR)-2-amino-3-cyano-8-methyl-4H,4aH,5H, 6H,7H,8H,8aH,9H-thieno[3,2-g]quinolin-6-yl]carbonyl}-3-[2-(dimethylamino)ethyl]-1-propylurea] | > 10 | 9431.8 | 1101.3 | –
CCCCN(C(=O)NCCN(CC)CC)C(=O)[C@@H]1C[C@@H]2Cc3c(sc(N)c3C#N)C[C@H]2N(C)C1 [1-3, 1-{[(4aR,6R,8aR)-2-amino-3-cyano-8-methyl-4H,4aH,5H,6H,7H,8H,8aH,9H-thieno[3,2-g]quinolin-6-yl]carbonyl}-1-butyl-3-[2-(diethylamino)ethyl]urea] | > 10 | 4478.3 | 845.0 | –
CCN(C(=O)NCC(C)(C)CN(C)C)C(=O)[C@@H]1C[C@@H]2Cc3c(sc(N)c3C#N)C[C@H]2N(C)C1 [1-4, 1-{[(4aR,6R,8aR)-2-amino-3-cyano-8-methyl-4H,4aH,5H,6H,7H,8H,8aH,9H-thieno[3,2-g]quinolin-6-yl]carbonyl}-3-[3-(dimethylamino)-2,2-dimethylpropyl]-1-ethlylurea] | > 10 | 6338.8 | 1131.3 | –
CCN(C(=O)N[C@@H](C)CN(C)C)C(=O)[C@@H]1C[C@@H]2Cc3c(sc(N)c3C#N)C[C@H]2N(C)C1 [1-57, 1-{[(4aR,6R,8aR)-2-amino-3-cyano-8-methyl-4H,4aH,5H,6H, 7H,8H,8aH,9H-thieno[3,2-g]quinolin-6-yl]carbonyl}-3-[(2S)-1-(dimethylamino)propan-2-yl]-1-ethylurea] | > 10 | 9976.5 | 1190.0 | –
CCN(C(=O)NCCN(C)C)C(=O)[C@@H]1C[C@@H]2Cc3c(sc(N)c3C#N)C[C@H]2N(C)C1 [1-108, 1-{[(4aR,6R,8aR)-2-amino-3-cyano-8-methyl-4H,4aH,5H,6H,7H,8H,8aH,9H-thieno[3,2-g]quinolin-6-yl]carbonyl}-3-[2-(dimethylamino)ethyl]-1-ethylurea] | > 10 | 2577.5 | 698.8 | –
CCCN(CCC)CCc1cccc2c1CC(=O)N2 [Ropinirole, ropinirole, reference compound] | – | 276.3 | 61.3 | 2.59
